From PubChem BioAssay (NCI)
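Exposure lasted 48 hours, with cells grown in 96-well plates and compounds tested at five concentrations. Definition used: TGI = concentration required for complete inhibition of growth.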

What was measured:
Experiment in all cases: DTP human tumour cell line panel, 48 h
M19-MEL melanoma = tested on: M19-MEL melanoma
LOX IMVI melanoma = tested on: LOX IMVI melanoma
U251 CNS = tested on: U251 CNS
HOP-62 NSCLC = tested on: HOP-62 NSCLC
MOLT-4 leukemia = tested on: MOLT-4 leukemia
OVCAR-5 ovarian = tested on: OVCAR-5 ovarian
KM20L2 colon = tested on: KM20L2 colon
SK-MEL-2 melanoma = tested on: SK-MEL-2 melanoma
SW-620 colon = tested on: SW-620 colon
NCI-H460 lung = tested on: NCI-H460 lung
DMS 273 small cell lung = tested on: DMS 273 small cell lung
M14 melanoma = tested on: M14 melanoma
786-0 renal = tested on: 786-0 renal
UO-31 renal = tested on: UO-31 renal
HL-60(TB) leukemia = tested on: HL-60(TB) leukemia
HCT-15 colon = tested on: HCT-15 colon
NCI-H23 lung = tested on: NCI-H23 lung
OVCAR-8 ovarian = tested on: OVCAR-8 ovarian
A549 NSCLC = tested on: A549 NSCLC
NCI-H522 lung = tested on: NCI-H522 lung
SF-268 CNS = tested on: SF-268 CNS
EKVX NSCLC = tested on: EKVX NSCLC
CAKI-1 renal = tested on: CAKI-1 renal
SK-MEL-5 melanoma = tested on: SK-MEL-5 melanoma
SR leukemia = tested on: SR leukemia
NCI-H226 lung = tested on: NCI-H226 lung
UACC-62 melanoma = tested on: UACC-62 melanoma
LXFL 529 NSCLC = tested on: LXFL 529 NSCLC
OVCAR-3 ovarian = tested on: OVCAR-3 ovarian
RXF 393 renal = tested on: RXF 393 renal
A498 renal = tested on: A498 renal
XF 498 CNS = tested on: XF 498 CNS
SNB-78 CNS = tested on: SNB-78 CNS
KM12 colon = tested on: KM12 colon
HOP-18 NSCLC = tested on: HOP-18 NSCLC
HT29 colon = tested on: HT29 colon
UACC-257 melanoma = tested on: UACC-257 melanoma
OVCAR-4 ovarian = tested on: OVCAR-4 ovarian
MALME-3M melanoma = tested on: MALME-3M melanoma
SK-OV-3 ovarian = tested on: SK-OV-3 ovarian
SF-539 CNS = tested on: SF-539 CNS
TK-10 renal = tested on: TK-10 renal
RPMI-8226 leukemia = tested on: RPMI-8226 leukemia
COLO 205 colon = tested on: COLO 205 colon
SNB-75 CNS = tested on: SNB-75 CNS
CCRF-CEM leukemia = tested on: CCRF-CEM leukemia
SNB-19 CNS = tested on: SNB-19 CNS
HCT-116 colon = tested on: HCT-116 colon
IGROV1 ovarian = tested on: IGROV1 ovarian
SF-295 CNS = tested on: SF-295 CNS
ACHN renal = tested on: ACHN renal
DLD-1 colon = tested on: DLD-1 colon
DMS 114 small cell lung = tested on: DMS 114 small cell lung
SN12C renal = tested on: SN12C renal
SK-MEL-28 melanoma = tested on: SK-MEL-28 melanoma
K-562 leukemia = tested on: K-562 leukemia
HCC-2998 colon = tested on: HCC-2998 colon
RXF-631 renal = tested on: RXF-631 renal
HOP-92 NSCLC = tested on: HOP-92 NSCLC

Measured: TGI

CCCCN(C)CC(C(C)=O)C(c1ccccc1)c1c(O)c2ccccc2oc1=O (stereo not drawn)
not listed: HCC-2998 colon | RXF-631 renal | HOP-92 NSCLC
> 100 µM: all other assays above

CCOC(=O)NC(=O)c1cn(C2CCCCC2)c(=O)n(C)c1=O
not listed: EKVX NSCLC | XF 498 CNS
> 100 µM: all other assays above

Cc1ccc([N+](=O)[O-])cc1NC(=O)C(=O)Cc1nc2ccc(C(=O)c3ccccc3)cc2[nH]c1=O
not listed: U251 CNS | OVCAR-5 ovarian | SK-MEL-2 melanoma | SF-268 CNS | A498 renal | SNB-78 CNS | RPMI-8226 leukemia | K-562 leukemia
> 100 µM: all other assays above

COC1CC(O[C@H]2CC[C@@]3(C)C(=CCC4(O)C3CCC35C(=O)OC6(C)O[C@@]43CCC65)C2)OC(C)C1O (stereo partly drawn)
not listed: LOX IMVI melanoma | SW-620 colon | OVCAR-3 ovarian | RXF-631 renal | HOP-92 NSCLC
> 100 µM: all other assays above
